The values that follow come from PMC2932756 (Chemico-biological interactions, 2010).

One series concerns SK-MEL-28 melanoma cells. Kind of series: MTT cell viability assay, IC50. The format is cell-based, human. Particulars: MTT assay, 48 h incubation.
Another series deals with tyrosinase. Nature of the series: Tyrosinase mediated GSH depletion assay. The series is classed as biochemical, Mushroom. Particulars: 100 μM phenolic agent, 200 μM GSH, tyrosinase/O2, 37 °C, 2 h.
The test system of series [1] is CYP2E1 induced rat liver microsomes. Particulars: 100 μM, pH 7.4.
Another series deals with isolated rat hepatocytes. Conditions: trypan blue exclusion, 2 h incubation; cited from earlier work.
The conditions of series [2]: no reference given; cited from earlier work.
A short description of series [3]: Partition coefficient, distribution coefficient and water solubility.

For the molecule `O=C(/C=C/c1ccc(O)c(O)c1)O[C@@H]1C[C@](O)(C(=O)O)C[C@@H](O)[C@H]1O` [CGA, chlorogenic acid], in the series on SK-MEL-28 melanoma cells, the “LD50 (day 2) SK-MEL-28” value is reported as more than 5 mM. In addition, in the series on tyrosinase, the “Tyrosinase GSH depletion (2 h)” value is 200±5%.

As to `O=C(O)/C=C/c1ccccc1` [CinA, cinnamic acid], the “Microsomes GSH depletion (2 h)” value in series [1] came to 110±7%. For the same molecule, in the series with tyrosinase, the “Tyrosinase GSH depletion (2 h)” value came out at 40±7%.

On to `O=C(O)CCc1ccc(O)c(O)c1` [DHCA, dihydrocaffeic acid], for which, in the series on isolated rat hepatocytes, the “LD50 (2 h) rat hepatocytes” value is recorded as 6 mM. Further, in the series with SK-MEL-28 melanoma cells, the “LD50 (day 2) SK-MEL-28” value is listed as 2.2 mM. Moreover, the “Tyrosinase GSH depletion (2 h)” value with tyrosinase is 200±4%.

On to `O=C(O)CCc1ccccc1` [DHCinA, Dihydrocinnamic acid], for which the “LD50 (day 2) SK-MEL-28” value in the series on SK-MEL-28 melanoma cells stood at 5 mM. The “Tyrosinase GSH depletion (2 h)” value in the series with tyrosinase worked out at 32±3%.

Turning to ferulic acid [FA], the “LD50 (2 h) rat hepatocytes” value with isolated rat hepatocytes was 25 mM. For the same molecule, the “LD50 (day 2) SK-MEL-28” value with SK-MEL-28 melanoma cells is reported as 2 mM. For the same molecule, in the series with tyrosinase, the “Tyrosinase GSH depletion (2 h)” value is listed as 46±2%.

Consider `O=C(O)/C=C/c1ccc(O)c(O)c1` [CA, caffeic acid], for which, in series [2], the “pKa value of the carboxylic moiety” value is on record as 4.62. Moreover, the “water solubility relative to CAPE” value in series [3] (from LogW) turned out to be 45 fold. Moreover, in series [3] (pH 7.4), the “ionized at physiological pH” value is recorded as “more than 99%”. Further, the “LD50 (day 2) SK-MEL-28” value in the series on SK-MEL-28 melanoma cells is reported as 2.3 mM. Besides, the “Tyrosinase GSH depletion (2 h)” value in the series on tyrosinase is listed as 200±6%.

Take `O=C(O)C=Cc1ccc(O)cc1` [4-HCA, 4-hydroxycinnamic acid]: the “LD50 (day 2) SK-MEL-28” value in the series on SK-MEL-28 melanoma cells came out at 4.4 mM. The “Tyrosinase GSH depletion (2 h)” value in the series on tyrosinase was 16±3%.

As to `O=C(O)CCc1ccc(O)cc1` [4-HPP, 4-hydroxypropionic acid], the “LD50 (day 2) SK-MEL-28” value in the series with SK-MEL-28 melanoma cells is recorded as 1.5 mM. Also, the “Tyrosinase GSH depletion (2 h)” value in the series on tyrosinase was determined as 42±2%.
